# Molecular target: T1, GLP-1R (Homo sapiens, UniProt P43220)
# T1 construct: host or cells: GLP-1R CRE-bla CHO-K1 cells
# Test: EC20 GLP-1(9-36) PAM cAMP assay: dose response of compound in the presence of fixed concentration of GLP-1(9-36)
# Format: cell-based
# Details: GLP-1R CRE-bla CHO-K1 cells, compound dose response with fixed concentration of GLP-1(9-36), read-out: EC20 GLP-1(9-36) PAM EC50
# Outline: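 Positive allosteric modulation read as cAMP accumulation: compound titrations (12 points) combined with an EC20 level of GLP-1(9-36) on CHO-K1 GLP-1R CRE-bla cells, IBMX present, 30 min, 37 °C, pH 7.4 buffer. Luminescence converted to cAMP via standards; non-linear fit gave EC50 and Emax.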
# T1 sequence (P43220 24-463): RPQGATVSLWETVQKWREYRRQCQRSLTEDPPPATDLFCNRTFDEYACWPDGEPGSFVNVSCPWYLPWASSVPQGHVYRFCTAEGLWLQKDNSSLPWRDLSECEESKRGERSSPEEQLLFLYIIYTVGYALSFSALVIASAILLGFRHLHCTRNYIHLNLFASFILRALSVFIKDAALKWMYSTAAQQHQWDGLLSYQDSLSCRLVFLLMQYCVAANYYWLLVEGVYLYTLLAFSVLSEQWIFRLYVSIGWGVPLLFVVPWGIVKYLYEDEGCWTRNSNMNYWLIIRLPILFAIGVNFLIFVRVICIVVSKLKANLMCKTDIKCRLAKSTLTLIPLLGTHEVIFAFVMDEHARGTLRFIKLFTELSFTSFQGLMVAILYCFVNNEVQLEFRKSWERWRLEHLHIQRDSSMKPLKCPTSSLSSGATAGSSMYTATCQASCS
# T1 sequence (P01275 100-127 partner limits assumed): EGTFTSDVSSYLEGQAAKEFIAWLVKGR
row,Structure (SMILES),EC50 [nM]
1,C[C@@H](NC(=O)[C@H](Cc1ccc(-c2ncc(OCc3ccc(C(F)(F)F)cc3)cn2)cc1)NC(=O)c1ccc(C(C)(C)C)s1)C(=O)O [Compound 1272],5000 to 10000
2,CCC[C@H]1CC[C@H](C2CCN(c3cnc(-c4ccc(C[C@H](NC(=O)c5ccc(C(C)C)s5)C(=O)N5CC(C(=O)O)C5)cc4)nc3)CC2)CC1 [Compound 1534],< 800
3,CCC[C@H]1CC[C@H](C2CCN(c3cnc(-c4ccc(C[C@H](NC(=O)c5ccc(C(C)(C)C#N)cc5)C(=O)N5CC(C(=O)O)C5)cc4)nc3)CC2)CC1 [Compound 1526],< 800
4,C[C@@H](NC(=O)[C@H](Cc1ccc(-c2ncc(/C=C/c3cccc(F)c3)cn2)cc1)NC(=O)c1ccc(C(C)(C)C)s1)C(=O)O [Compound 1248],5000 to 10000
5,CCC[C@H]1CC[C@H](C2CCN(c3cnc(-c4ccc(C[C@H](NC(=O)c5ccc(CC(C)C)s5)C(=O)N5CC(C(=O)O)C5)cc4)nc3)CC2)CC1 [Compound 1522],< 800

# The next lines start with the values.
row,EC50 [nM],Structure (SMILES)
1,800 to 2500,CCOc1ccc(/C=C/c2cnc(-c3ccc(C[C@H](NC(=O)c4ccc(C(C)(C)C)s4)C(=O)N[C@H](C)C(=O)O)cc3)nc2)cc1 [Compound 1258]
2,< 800,CCC[C@H]1CC[C@H](C2CCN(c3cnc(-c4ccc(C[C@H](NC(=O)c5ccc(C(C)(C)C)s5)C(=O)NCC(=O)O)cc4)nc3)CC2)CC1 [Compound 1461]
3,800 to 2500,CC(C)(C)c1ccc(C(=O)NC(Cc2ccc(-c3ncc(N4CCC(C#N)(c5ccccc5)CC4)cn3)cc2)C(=O)N2CC(C(=O)O)C2)s1 (centres unmarked) [Compound 1423]
4,800 to 2500,CC(C)CCCOc1ccc(-c2cnc(-c3ccc(C[C@H](NC(=O)c4ccc(CC(C)C)cc4)C(=O)N4CC(C(=O)O)C4)cc3)nc2)cc1 [Compound 1236]
5,< 800,CCC[C@H]1CC[C@H](C2CCN(c3cnc(-c4ccc(C[C@H](NC(=O)c5ccc(C(C)(C)C)s5)C(=O)NC(CCN)C(=O)O)cc4)nc3)CC2)CC1 (some centres unmarked) [Compound 1471]

# Same assay, conditions: dose response of compound in presence of fixed concentration of GLP-1(9-36), GLP-1R CRE-bla CHO-K1 cells, read-out: EC20 GLP-1(9-36) PAM EC50
row,Structure (SMILES),EC50 [nM]
1,C[C@@H](NC(=O)[C@H](Cc1ccc(-c2ncc(-c3ccc(-c4ccc(C(F)(F)F)cc4F)cc3)cn2)cc1)NC(=O)c1ccc(C(C)(C)C)s1)C(=O)O [Compound 1147],< 800
2,CCCCCCCOc1ccc(-c2cnc(-c3ccc(C[C@H](NC(=O)c4ccc(OCC)cc4)C(=O)NC(C(=O)O)C(O)c4ccccc4)cc3)nc2)cc1 (some centres unmarked) [Compound 949],800 to 2500
3,CCCCCCCOc1ccc(-c2cnc(-c3ccc(C[C@@H](NC(=O)c4ccc(C(C)(C)C)cc4)C(=O)NCCC(=O)O)cc3)nc2)cc1 [Compound 433],2500 to 5000
4,CCCCCCCOc1ccc(-c2cnc(-c3ccc(C[C@@H](NC(=O)c4ccc(C(C)(C)C)cc4)C(=O)NCC(=O)O)cc3)nc2)cc1 [Compound 380],800 to 2500
5,CCCCCCCOc1ccc(-c2cnc(-c3ccc(C[C@H](NC(=O)c4ccc(C(C)C)s4)C(=O)NC(C(=O)O)C(O)c4ccccc4)cc3)nc2)cc1 (some centres unmarked) [Compound 958],800 to 2500
6,COCCCCCOc1ccc(-c2cnc(-c3ccc(C[C@H](NC(=O)c4ccc(C(C)(C)C)cc4)C(=O)NCCC(=O)O)cc3)nc2)cc1 [Compound 471],5000 to 10000
7,CCCCCCOc1ccc(-c2ccc(-c3ccc(C[C@H](NC(=O)c4ccc(C(C)(C)C)cc4)C(=O)O)cc3)cn2)cc1 [Compound 270],2500 to 5000
8,CCCCCCCOc1ccc(-c2cnc(-c3ccc(C[C@H](NC(=O)c4ccc(C(C)(C)C)cc4)C(=O)N[C@@H](CC(=O)N(C)CCN)C(=O)O)cc3)nc2)cc1 [Compound 509],800 to 2500
9,CCC/C=C/CCOc1ccc(-c2cnc(-c3ccc(C[C@H](NC(=O)c4ccc(C(C)(C)C)cc4)C(=O)NCCC(=O)O)cc3)nc2)cc1 [Compound 716],800 to 2500
10,Cc1cccc(-c2noc(-c3cnc(-c4ccc(C[C@H](NC(=O)c5ccc(C(C)(C)C)cc5)C(=O)NCCC(=O)O)cc4)nc3)n2)c1 [Compound 750],2500 to 5000
11,CCCCCCCOc1ccc(-c2cnc(-c3ccc(C[C@H](NC(=O)c4ccc(CCCC)cc4)C(=O)N[C@H](C)C(=O)O)cc3)nc2)cc1 [Compound 820],2500 to 5000

# Now from value to compound:
row,EC50 [nM],Structure (SMILES)
1,800 to 2500,CCCCCCCOc1ccc(-c2cnc(-c3ccc(C[C@H](NC(=O)c4ccc(C(C)(C)C)s4)C(=O)N[C@H](C(=O)O)[C@@H](O)c4ccccc4)cc3)nc2)cc1 [Compound 665]
2,800 to 2500,CCCCCCCOc1ccc(-c2cnc(-c3ccc(C[C@H](NC(=O)c4cnn(C(C)(C)C)c4)C(=O)N4CC[C@H](C(=O)O)C4)cc3)nc2)cc1 [Compound 867]
3,2500 to 5000,CCCCCOc1ccc(-c2cnc(-c3ccc(C[C@H](NC(=O)c4ccc(C(C)(C)C)s4)C(=O)NC(C(=O)O)C(O)c4ccccc4)cc3)nc2)cc1 (some centres unmarked) [Compound 925]
4,< 800,"CCCCCCCOc1ccc(-c2cnc(-c3ccc(C[C@H](NC(=O)c4ccc(C(C)(C)C)cc4)C(=O)N4CC(C(=O)O)C4)cc3)nc2)cc1 [Compound 590, (S)-1-(2-(4-(tert-butyl)benzamido)-3-(4-(5-(4-(heptyloxy)phenyl)pyrimidin-2-yl)phenyl)propanoyl)azetidine-3-carboxylic acid]"
5,2500 to 5000,CCCCCCCOc1ccc(-c2cnc(-c3ccc(C[C@H](NC(=O)c4ccc(C(C)(C)C)s4)C(=O)N[C@H](CN)C(=O)O)cc3)nc2)cc1 [Compound 392]
6,800 to 2500,CC(C)(C)c1ccc(C(=O)N[C@@H](Cc2ccc(-c3ncc(-c4ccc(OCCC5CCCCC5)cc4)cn3)cc2)C(=O)N2CC[C@H](C(=O)O)C2)s1 [Compound 774]
7,800 to 2500,CCCCCCCOc1ccc(-c2cnc(-c3ccc(C[C@H](NC(=O)c4ccc(C(C)(C)C)s4)C(=O)N4CC[C@@H]4C(=O)O)cc3)nc2)cc1 [Compound 669]
8,< 800,CCCCCCCOc1ccc(-c2cnc(-c3ccc(C[C@H](NC(=O)c4ccc(C(C)(C)C)s4)C(=O)N[C@H](C)C(=O)O)cc3)nc2)nc1 [Compound 1063]
9,5000 to 10000,CCCCCCCOc1ccc(-c2cnc(-c3ccc(C[C@H](NC(=O)c4ccc(C(C)(C)C)s4)C(=O)N4CC(CN(C)C)C4)cc3)nc2)cc1 [Compound 975]
10,5000 to 10000,CCC(CC)Oc1ccc(-c2cnc(-c3ccc(C[C@H](NC(=O)c4ccc(C(C)(C)C)s4)C(=O)N4CC(C(=O)O)C4)cc3)nc2)cc1 [Compound 919]
11,800 to 2500,CCCCCCCOc1ccc(-c2cnc(-c3ccc(C[C@H](NC(=O)c4ccc(C(C)(C)C)s4)C(=O)N4CC(C)C(C(=O)O)C4)cc3)nc2)cc1 (some centres unmarked) [Compound 631]
12,2500 to 5000,CCCCCCCOc1ccc(-c2cnc(-c3ccc(C[C@H](NC(=O)c4ccc(C(C)(C)C)s4)C(=O)NC4CCNC4)cc3)nc2)cc1 (some centres unmarked) [Compound 984]
13,< 800,CCCCCCCOc1ccc(-c2cnc(-c3ccc(C[C@H](NC(=O)c4ccc(C(C)(C)C)s4)C(=O)N4CC(C(=O)NS(C)(=O)=O)C4)cc3)nc2)cc1 [Compound 650]
14,800 to 2500,CCCOc1ccc(-c2cnc(-c3ccc(C[C@H](NC(=O)c4ccc(C(C)(C)C)s4)C(=O)N[C@H](C)C(=O)O)cc3)nc2)cc1 [Compound 732]
15,800 to 2500,CCCOc1ccc(-c2cnc(-c3ccc(C[C@H](NC(=O)c4ccc(C(C)(C)C)s4)C(=O)N[C@H](C)C(=O)O)cc3)nc2)cc1C [Compound 1005]
16,800 to 2500,CCCCCCCOc1ccc(-c2cnc(-c3ccc(C[C@H](NC(=O)c4ccc(C(C)(C)C)s4)C(=O)NC(C(=O)O)C(O)C4CCCO4)cc3)nc2)cc1 (some centres unmarked) [Compound 916]
17,800 to 2500,CC(C)CCOc1ccc(-c2cnc(-c3ccc(C[C@H](NC(=O)c4ccc(C(C)(C)C)s4)C(=O)N4CC(C(=O)O)C4)cc3)nc2)cc1 [Compound 799]

# Reference: patent US10034886B2, “GLP-1 receptor modulators” (Celgene International II SÀRL, priority 2014, dated 2018)
